Like-named read-outs stand apart in the source and are kept apart here.
Assays:
nucleic acid polymerase = experiment: PEM activity summary: primer extension on 45mer, 100mer, 150mer, 222mer DNA templates, gel (Table 2); type: biochemical; conditions: preliminary functional characterization
Description: In some instances, the PEM compounds of the present disclosure were tested in primer extension reactions using DNA templates of the following lengths: A) 45mer; B) 100mer; C) 150mer; and D) 222mer.

[1] = molecular target: T1, C4760 DNA polymerase (a variant of DPO4) (Saccharolobus solfataricus, UniProt Q97W02, A155G/A42V/D156R/D292Y/D294N/E291S/E324K/E325K/E327K/E63R/E79L/G187P/G299W/I153V/I189F/I248T/I295S/K152A/K317Q/K321Q/K56Y/K78D/L293W/M76W/N188Y/P184Q/Q82W/Q83G/R300S/S297Y/S86E/T290K/T301W/V289W/V296Q); type: biochemical, Sulfolobus solfataricus; conditions: for XNTP polymerization relative to compound 10: 30 minutes at 23 °C; for XNTP polymerization relative to compound 14: compound 16 at 2 Mm, compound 17 at 0.5, 1, 2, 3 Mm, 30 minutes at 37 °C, FIG. 13
T1 construct: Eco or Kod SSB in reaction as additive
T1 sequence (Q97W02 1-340 A155G/A42V/D156R/D292Y/D294N/E291S/E324K/E325K/E327K/E63R/E79L/G187P/G299W/I153V/I189F/I248T/I295S/K152A/K317Q/K321Q/K56Y/K78D/L293W/M76W/N188Y/P184Q/Q82W/Q83G/R300S/S297Y/S86E/T290K/T301W/V289W/V296Q): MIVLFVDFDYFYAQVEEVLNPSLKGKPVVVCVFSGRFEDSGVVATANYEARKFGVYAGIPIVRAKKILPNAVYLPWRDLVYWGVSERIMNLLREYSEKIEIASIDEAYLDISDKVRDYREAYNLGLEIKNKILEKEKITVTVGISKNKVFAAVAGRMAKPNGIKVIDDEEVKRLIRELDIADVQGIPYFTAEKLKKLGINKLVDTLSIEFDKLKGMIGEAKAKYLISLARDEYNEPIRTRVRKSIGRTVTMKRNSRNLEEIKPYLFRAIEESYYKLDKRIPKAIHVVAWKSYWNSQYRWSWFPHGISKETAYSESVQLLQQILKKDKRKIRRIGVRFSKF
Description: (§1) PEM activity of compound 12 was tested in primer extension assays using the HIV2 100mer template. Primer extension reactions included the following reagents: 50 Mm TrisCl, 200 Mm NH4Oac, 20% PEG8K, 5% NMS, 0.6 nmol PP-60.20, 0.6 Mm MnCl2, 2.75 μg/μl Eco single-strand binding protein (SSB), 1 M urea, 50 pmol each XNTP, 1.1 pmol template, 1 pmol [COMPOUND LEFT OUT] primer, 1.2 μg/μl purified recombinant C4760 DNA polymerase (SEQ ID NO: 2), and 0.5, 1, or 1.5 Mm PEM. 10 μL primer extension reactions were run for 30 minutes at 23 °C and reaction products were analyzed by gel electrophoresis.
as §1, with “compounds 13 and 14” for “compound 12”, “(a variant of DPO4, see SEQ” for “(SEQ”, “1, 1.52,” for “1,”, “2.5” for “1.5”, “electrophoresis. A representative gel showing primer extension products is presented in FIG. 11 (the position of the full length HIV2 100mer is indicated by the arrow).” for “electrophoresis.”
PEM activity of compounds 16, 17, and 18 and combinations thereof were tested in primer extension assays using the HIV2-derived 100mer template. […] 10 μL primer extension reactions were run for 30 minutes at 37 °C and reaction products were analyzed by gel electrophoresis. A representative gel showing primer extension products is presented in FIG. 13 (the position of a 100mer product is indicated by the arrow).

DNA polymerase = experiment: Primer extension with XNTPs, gel electrophoresis (PEM screen, 45mer template); type: biochemical; conditions: for primer extension products with XNTPs: 45mer template, FIG. 4, vs no PEM additive (up to only around 14 XNTPs)
Description: The Sequencing by Expansion (SBX) methodology developed by the inventors provides significant performance enhancements in sequence read efficiency and accuracy of Xpandomers relative to native DNA. However, initial transcription of the sequence of the natural DNA template onto the measurable Xpandomer relies on the ability of DNA polymerase to utilize XNTPs as substrates (the generalized structure of an XNTP is discussed herein with reference to FIG. 1A and FIG. 2). […] In an effort to improve the efficiency and accuracy of XNTP polymerization into Xpandomers, several PEMs were screened for the ability to enhance DNA polymerase primer extension reactions using XNTPs as substrates.
A representative primer extension reaction may include the following reagents: 2 pmol primer, 2.2 pmol 45mer [COMPOUND LEFT OUT] template, 50 pmol of each XNTP (XATP, XCTP, XGTP, and XTTP), 50 Mm Tris HCl, Ph 6.79, 200 Mm NaCl, 20% PEG, 5% NMS, 0.5 nmol polyphosphate 60.19, 0.3 Mm MnCl2, and 0.6 μg of purified recombinant DNA polymerase protein. Reactions may be run for 1 hour at 23 °C. Reaction products (i.e., constrained Xpandomers) are treated to cleave the phosphoramidate bonds, thereby generating linearized Xpandomers. Reaction products may be analyzed using gel electrophoresis on 4-12% acrylamide gels to resolve and visualize Xpandomer products of different lengths. For the PEM screen described above, PEMs were typically tested in the micro to millimolar range.

[2] = molecular target: T1, C4760 DNA polymerase (a variant of DPO4); experiment: Primer extension on 45mer RNA template (HIV2) with C4760 polymerase, gel; type: biochemical, Sulfolobus solfataricus; conditions: 2 Mm PEM, 45mer RNA template derived from HIV2, Kod SSB, 30 minutes at 37 °C
Description: To begin to investigate the potential of PEMs to enhance diverse polymerase reactions, the ability of PEMS to enable DNA polymerase to utilize RNA as a template was tested. An initial screen of several compounds set forth in Table 1 was conducted using a 45mer RNA template derived from the HIV2 genome sequence. Primer extension reactions included the following reagents: 50 Mm TrisCl, 200 Mm NH4OAc, 20% PEG8K, 5% NMS, 0.6 nmol PP-60.20, 0.6 Mm MnCl2, 2 μg Kod single-strand binding protein (SSB), 1 M urea, 50 pmol each XNTP, 0.5 pmol template, 0.5 pmol [COMPOUND LEFT OUT] primer, 1.2 μg purified recombinant C4760 DNA polymerase (a variant of DPO4, see SEQ ID NO: 2), and 2 Mm PEM. 10 μL primer extension reactions were run for 30 minutes at 37 °C and reaction products were analyzed by gel electrophoresis.

[3] = 0.5, 1, 1.52, or 2.5 Mm PEM, FIG. 11

For `O=C(O)c1ccc(-n2cc(-c3cccc(-c4cn(-c5ccc(C(=O)O)c(O)c5)nn4)c3)nn2)cc1` [Compound 176, 4-(4-{m-[1-(p-Carboxyphenyl)-1H-1,2,3-triazol-4-yl]phenyl}-1H-1,2,3-triazol-1-yl)-2-hydroxybenzoic acid], the “Functional Category: PEM effect” value (nucleic acid polymerase) was “PEM effect”.
With `N#Cc1cc(-c2cn(-c3ccc(O)c(C(=O)O)c3)nn2)nc(-c2cn(-c3ccc(O)c(C(=O)O)c3)nn2)c1` [Compound 12, 5,5′-((4-cyanopyridine-2,6-diyl)bis(1H-1,2,3-triazole-4,1-diyl))bis(2-hydroxybenzoic acid)] the “XNTP polymerization relative to compound 10” value ([1]; 0.5, 1, or 1.5 Mm PEM, FIG. 10) was “comparable to that of compound 10”.
In the case of `CCNC(=O)c1cc(-c2cn(-c3ccc(C(=O)NCC)c(C(F)(F)F)c3)nn2)nc(-c2cn(-c3ccc(C(=O)NCC)c(C(F)(F)F)c3)nn2)c1` [Compound 236, N-Ethyl-2,6-bis{1-[4-(N-ethylcarbamoyl)-3-(trifluoromethyl)phenyl]-1H-1,2,3-triazol-4-yl}isonicotinamide], the “Functional Category: PEM effect” value (nucleic acid polymerase) was “PEM effect”.
For `O=C(O)c1ccc(-n2cc(-c3ccc4[nH]c5ccc(-c6cn(-c7ccc(C(=O)O)c(O)c7)nn6)cc5c4c3)nn2)cc1O` [Compound 4, 4,4′-((9H-carbazole-3,6-diyl)bis(1H-1,2,3-triazole-4,1-diyl))bis(2-hydroxybenzoic acid)], the “primer extension products with XNTPs” value (DNA polymerase) was “considerably longer extension products”.
In the case of `O=C(O)c1ccc(-n2cc(-c3cccc(-c4cn(-c5ccc(C(=O)O)c(O)c5)nn4)c3)nn2)cc1O` [Compound 3, 4,4′-(1,3-phenylenebis(1H-1,2,3-triazole-4,1-diyl))bis(2-hydroxybenzoic acid)], the “primer extension products with XNTPs” value (DNA polymerase) was “considerably longer extension products”.
`COC(=O)c1cc(-c2cn(-c3ccc(C(=O)O)c(O)c3)nn2)nc(-c2cn(-c3ccc(C(=O)O)c(O)c3)nn2)c1` [Compound 16, 4,4′-((4-(methoxycarbonyl)pyridine-2,6-diyl)bis(1H-1,2,3-triazole-4,1-diyl))bis(2-hydroxybenzoic acid)] was tested, and the “XNTP polymerization relative to compound 14” value [1] was “comparable to that of compound 14”.
With `CCNC(=O)c1cc(-c2cn(-c3ccc(C(=O)NCC(=O)NCC(=O)O)c(C(F)(F)F)c3)nn2)nc(-c2cn(-c3ccc(C(=O)NCC(=O)NCC(=O)O)c(C(F)(F)F)c3)nn2)c1` [Compound 113, 2,2′-((2,2′-((4,4′-((4-(ethylcarbamoyl)pyridine-2,6-diyl)bis(1H-1,2,3-triazole-4,1-diyl))bis(2-(trifluoromethyl)benzoyl))bis(azanediyl))bis(acetyl))bis(azanediyl))diacetic acid] the “Functional Category: PEM effect” value (nucleic acid polymerase) was “PEM effect”.
With `CCOC(=O)c1cc(-c2cn(-c3ccc(C(=O)O)c(O)c3)nn2)nc(-c2cn(-c3ccc(C(=O)O)c(O)c3)nn2)c1` [Compound 14, 4,4′-((4-(ethoxycarbonyl)pyridine-2,6-diyl)bis(1H-1,2,3-triazole-4,1-diyl))bis(2-hydroxybenzoic acid)] the “XNTP polymerization relative to compound 10” value [1, 3] was “comparable to that of compound 10”.
In the case of `CCNC(=O)c1cc(-c2cn(-c3ccc4cc(C(=O)O)ccc4c3)nn2)nc(-c2cn(-c3ccc4cc(C(=O)O)ccc4c3)nn2)c1` [Compound 206, 6-(4-{6-[1-(6-Carboxy-2-naphthyl)-1H-1,2,3-triazol-4-yl]-4-(N-ethylcarbamoyl)-2-pyridyl}-1H-1,2,3-triazol-1-yl)-2-naphthoic acid], the “Functional Category: PEM effect” value (nucleic acid polymerase) was “PEM effect”.
With `O=C(O)c1ccc(-n2cc(-c3cncc(-c4cn(-c5ccc(C(=O)O)c(O)c5)nn4)c3)nn2)cc1O` [Compound 2, 4,4′-(pyridine-3,5-diylbis(1H-1,2,3-triazole-4,1-diyl))bis(2-hydroxybenzoic acid)] the “primer extension activity with XNTPs” value (DNA polymerase; FIG. 5, PEM at various concentrations, vs no PEM additive) was “significantly enhances primer extension activity”.
For `CCNC(=O)c1cc(-c2cn(-c3ccc(C(=O)O)c(O)c3)nn2)nc(-c2cn(-c3ccc(C(=O)O)c(O)c3)nn2)c1` [Compound 17, 4,4′-((4-(ethylcarbamoyl)pyridine-2,6-diyl)bis(1H-1,2,3-triazole-4,1-diyl))bis(2-hydroxybenzoic acid)], the “PEM activity on RNA template” value [2] was “display PEM activity on an RNA template” and the “XNTP polymerization relative to compound 14” value [1] was “comparable to that of compound 14”.
With `Cc1cc(-c2cn(-c3ccc(C(=O)O)c(O)c3)nn2)nc(-c2cn(-c3ccc(C(=O)O)c(O)c3)nn2)c1` [Compound 13, 4,4′-((4-methylpyridine-2,6-diyl)bis(1H-1,2,3-triazole-4,1-diyl))bis(2-hydroxybenzoic acid)] the “XNTP polymerization relative to compound 10” value [1, 3] was “comparable to that of compound 10”.
`O=C(O)c1ccc(-n2cc(-c3cc(C(=O)N4CCOCC4)cc(-c4cn(-c5ccc(C(=O)O)c(O)c5)nn4)n3)nn2)cc1O` [Compound 51, 4,4′-((4-(morpholine-4-carbonyl)pyridine-2,6-diyl)bis(1H-1,2,3-triazole-4,1-diyl))bis(2-hydroxybenzoic acid)] was tested, and the “PEM activity on RNA template” value [2] was “display PEM activity on an RNA template”.

Reference: patent US20260365633A1, “Novel PEM Structures for SBX” (Roche Sequencing Solutions, Inc., priority 2023, published 2026)
